Data from US11712404B2 (priority 2018, dated 2023).

Assays:
[1] = Water sorption and solubility (ISO 4049); format: physicochemical; settings: for water sorption: one week in water
Protocol: The same samples used in the polymerization kinetics test were stored dry at room temperature for 24 hs, then used for the water sorption (WS) and solubility (SL) test, according to ISO 4049 (REF). The initial mass (M1) was recorded and the volume calculated following the equation: V=h×πr^2 where h (mm) is the sample height and r (mm) is the sample radius.
Each sample was placed in a tight-close glass vial with 5 glass beads on the bottom to ensure the whole surface of the sample was exposed to water, and then the vial was filled by 5 ml of double-distilled water and kept closed for one week. The samples were then removed from water, patted dry and weighed again (M2) and placed in a desiccator until mass stabilization (M3) was observed. Water sorption (WS) and solubility (SL) were calculated according to the equations:
[formula] and the results were converted into […], where V is the volume of the specimen. Dentin Microtensile Bond Strength
The same samples used in the polymerization kinetics were tested for water sorption and solubility, according to [25]. Briefly, the mass of the disks was determined before (m1) and after immersion in distilled water for one week (m2). The disks were then stored in a desiccator until the mass stabilized (m3), which took around one week. Water sorption (WS) and solubility (SL) were calculated using the following equations:
[formula] where V is the volume of the specimen. 2.4 Microtensile bond strength

[2] = Neat monomer incubation in water, remaining monomer by HPLC; settings: neat compound incubated in water
Protocol: (§1) Monomers were prepared to a concentration of 0.15 mM for water and CE/PCE incubations and incubated at 72 hours at 37° C.
(§2) Degradation from CE and PCE was monitored via high performance liquid chromatography (HPLC) and measured via initial and post incubation monomer area difference.
(§3) This was calculated in the decrease in absorbance area measured by HPLC at 227 nm wavelength. Degradation was further verified by the detection of methacrylic acid.

[3] = tested on: cholinesterase (CE) and pseudocholinesterase (PCE); test: Neat monomer incubation with cholinesterase / pseudocholinesterase, HPLC; settings: neat compound in the presence of cholinesterase
Protocol: as §1, §2, §3

[4] = target: T1, matrix metalloproteinase 2 (MMP-2) (Homo sapiens, UniProt P08253); test: MMP-2 incubation, fluorometric assay; format: biochemical; settings: 0.02 mM monomer, 24 hours at 37° C., fluorescence Ex/Em=490/525 nm
T1 sequence (P08253 110-660): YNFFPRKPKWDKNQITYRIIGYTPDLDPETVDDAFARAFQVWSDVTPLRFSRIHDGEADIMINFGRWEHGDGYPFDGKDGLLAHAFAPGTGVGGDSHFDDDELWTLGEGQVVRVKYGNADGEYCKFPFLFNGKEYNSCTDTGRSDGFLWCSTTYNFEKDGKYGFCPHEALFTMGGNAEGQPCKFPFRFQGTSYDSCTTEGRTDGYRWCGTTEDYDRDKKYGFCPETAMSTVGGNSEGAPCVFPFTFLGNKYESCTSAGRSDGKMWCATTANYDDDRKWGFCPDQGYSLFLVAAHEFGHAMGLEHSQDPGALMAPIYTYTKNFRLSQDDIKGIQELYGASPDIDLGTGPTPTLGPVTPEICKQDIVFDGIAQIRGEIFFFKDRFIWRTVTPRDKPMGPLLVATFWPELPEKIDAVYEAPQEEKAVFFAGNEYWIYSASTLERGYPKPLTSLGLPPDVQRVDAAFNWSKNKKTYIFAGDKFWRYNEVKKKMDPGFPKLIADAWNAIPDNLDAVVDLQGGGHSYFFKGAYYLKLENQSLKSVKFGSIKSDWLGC
Protocol: MMP-2 incubation was prepared at 0.02 mM monomer concentration and incubated at 24 hours at 37° C. and degradation from MMP was measured via a fluorometric assay utilizing a plate reader.
BB94 is a commercial, known inhibitor of MMP-2. Plate reader fluorescence was set at Ex/Em=490/525 nm. Lower fluorescence signal indicates enzyme inhibition. Initial study indicate HEMA and HEMAM inhibition of MMP-2.

[5] = Monomer degradation in low pH environment (1H NMR); settings: neat monomer, 30 days
[6] = at 30° C. and 1 Hz; cited from earlier work

Structure (SMILES) | water sorption ([1]; UDMA mixtures) [μg/mm3] | degradation under aqueous conditions [2] | degraded monomers under enzymatic conditions [3] [%] | further results
C=CC(=O)N(C)CCO [HEM, N-(2-hydroxyethyl)-N-methylacrylamide] | 203.5 |  |  | water sorption ([1]; BisGMA co-polymerizations): 38.7 μg/mm3
C=C(C)C(=O)NC(C)(C)CO [Monomer 2dMM, N-(1-hydroxy-2-methylpropan-2-yl)methacrylamide] | 102.7 | virtually no degradation | 8 | 
C=C(C)C(=O)OCCO [HEMA, 2-Hydroxyethyl methacrylate] | 102.8 | 8% | 52 | inhibition of MMP-2 [4]: inhibition; degradation ([5]; pH 1, 37° C.): 69.0 (2.3) %; degradation ([5]; pH 2, 37° C.): 10.5 (0.7) %
C=C(C)C(=O)NC(CC)CO (stereo not shown) [Monomer 2EM, N-(1-hydroxybutan-2-yl)methacrylamide] | 102.7 | virtually no degradation | 22 | 
C=C(C)C(=O)OCC(O)COc1ccc(C(C)(C)c2ccc(OCC(O)COC(=O)C(=C)C)cc2)cc1 (stereo not shown) [BisGMA, Bisphenol A glycerolate dimethacrylate] |  |  |  | initial viscosity [6]: 1369 Pa·s
C=CC(=O)N(C)C [DMAM, N.N-Dimethylacrylamide] | 224.7 |  |  | solubility ([1]; BisGMA co-polymerization): 52.3 μg/mm3; solubility ([1]; UDMA co-polymerization): 44.3 μg/mm3
C=C(C)C(=O)OCCOC(=O)NCCC(C)CC(C)(C)CNC(=O)OCCOC(=O)C(=C)C (stereo not shown) [UDMA, urethane dimethacrylate] |  |  |  | initial viscosity [6]: 28 Pa·s
C=C(C)C(=O)NCCO [HEMAM, N-Hydroxyethyl methacrylamide] |  |  |  | inhibition of MMP-2 [4]: inhibition; degradation ([5]; pH 1, 37° C.): 6.0 (0) %; degradation ([5]; pH 2, 37° C.): did not show any significant amount of degradation products
